Values of other authors as cited in patent EP1844782A1 (priority 2006, dated 2007).

Test system: EAE
Conditions: EAE (Craner et al., 2005)

## O=C1NC(=O)C(c2ccccc2)(c2ccccc2)N1 [phenytoin]
  ameliorates the inflammatory cell infiltrate in EAE: 75%
